Where a SMILES comes first, the peptide text is derived from it. The star is where a group is joined. X1 = O=C(O)c1ccc2c(c1)nc(OCCCCCCCCC(=O)*)c1ccncc12
Key:
[1] = target: Receptor tyrosine-protein kinase erbB-4 (Homo sapiens) (UniProt Q15303); experiment: Inhibition of human HER4 assessed as residual activity at 1 uM in presence of [33P]ATP by filter binding assay relative to control
[2] = target: Receptor-interacting serine/threonine-protein kinase 2 (Homo sapiens) (UniProt O43353); experiment: Inhibition of human RIPK2 assessed as residual activity at 1 uM in presence of 33P-ATP by filter-binding assay relative to control
Chain of Receptor-interacting serine/threonine-protein kinase 2 (Homo sapiens) (O43353 whole entry): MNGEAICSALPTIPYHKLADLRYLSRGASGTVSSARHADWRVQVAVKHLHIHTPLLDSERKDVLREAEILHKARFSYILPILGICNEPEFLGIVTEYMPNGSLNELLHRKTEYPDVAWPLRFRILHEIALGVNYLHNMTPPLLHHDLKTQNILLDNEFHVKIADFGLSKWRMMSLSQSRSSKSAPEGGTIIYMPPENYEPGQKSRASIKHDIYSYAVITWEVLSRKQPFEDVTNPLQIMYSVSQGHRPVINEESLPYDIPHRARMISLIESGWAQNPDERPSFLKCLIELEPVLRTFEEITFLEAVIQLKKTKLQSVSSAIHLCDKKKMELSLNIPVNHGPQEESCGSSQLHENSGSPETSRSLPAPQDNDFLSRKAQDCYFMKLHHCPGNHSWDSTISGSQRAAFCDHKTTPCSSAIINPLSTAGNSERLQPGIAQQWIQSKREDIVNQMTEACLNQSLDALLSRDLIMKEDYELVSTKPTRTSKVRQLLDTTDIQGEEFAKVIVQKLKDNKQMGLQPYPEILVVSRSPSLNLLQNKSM

[3] = target: Testis-specific serine/threonine-protein kinase 1 (Homo sapiens) (UniProt Q9BXA7); experiment: Inhibition of human TSSK1 assessed as residual activity at 1 uM in presence of [33P]ATP by filter binding assay relative to control
[4] = target: Serine/threonine-protein kinase PINK1, mitochondrial (Homo sapiens) (UniProt Q9BXM7); experiment: Inhibition of human PINK assessed as residual activity at 1 uM in presence of [33P]ATP by filter binding assay relative to control
Chain of Serine/threonine-protein kinase PINK1, mitochondrial (Homo sapiens) (Q9BXM7 whole entry): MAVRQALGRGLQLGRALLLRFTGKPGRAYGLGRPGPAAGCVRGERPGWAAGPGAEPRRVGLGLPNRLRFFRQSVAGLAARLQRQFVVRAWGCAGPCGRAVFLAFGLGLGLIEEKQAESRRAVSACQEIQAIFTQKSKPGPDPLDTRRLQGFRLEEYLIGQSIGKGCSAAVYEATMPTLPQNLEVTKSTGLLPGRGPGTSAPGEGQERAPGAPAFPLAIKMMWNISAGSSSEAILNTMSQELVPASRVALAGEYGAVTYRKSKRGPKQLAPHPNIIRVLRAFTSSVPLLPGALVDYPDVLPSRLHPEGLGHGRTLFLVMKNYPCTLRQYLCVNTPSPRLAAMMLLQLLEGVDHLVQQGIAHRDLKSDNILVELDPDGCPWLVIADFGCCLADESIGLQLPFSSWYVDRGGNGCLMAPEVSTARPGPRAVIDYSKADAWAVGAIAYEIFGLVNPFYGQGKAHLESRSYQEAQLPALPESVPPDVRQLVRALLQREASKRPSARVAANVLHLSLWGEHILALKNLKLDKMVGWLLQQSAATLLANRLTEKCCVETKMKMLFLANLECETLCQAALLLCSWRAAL

[5] = target: MAP/microtubule affinity-regulating kinase 3 (Homo sapiens) (UniProt P27448); experiment: Inhibition of human MARK3 assessed as residual activity at 1 uM in presence of [33P]ATP by filter binding assay relative to control
[6] = target: Serine/threonine-protein kinase pim-2 (Homo sapiens) (UniProt Q9P1W9); experiment: Inhibition of human PIM2 assessed as residual activity at 1 uM in presence of [33P]ATP by filter binding assay relative to control
[7] = target: Angiopoietin-1 receptor (Homo sapiens) (UniProt Q02763); experiment: Inhibition of human TIE2 assessed as residual activity at 1 uM in presence of 33P-ATP by filter-binding assay relative to control
Chain of Angiopoietin-1 receptor (Homo sapiens) (Q02763 whole entry): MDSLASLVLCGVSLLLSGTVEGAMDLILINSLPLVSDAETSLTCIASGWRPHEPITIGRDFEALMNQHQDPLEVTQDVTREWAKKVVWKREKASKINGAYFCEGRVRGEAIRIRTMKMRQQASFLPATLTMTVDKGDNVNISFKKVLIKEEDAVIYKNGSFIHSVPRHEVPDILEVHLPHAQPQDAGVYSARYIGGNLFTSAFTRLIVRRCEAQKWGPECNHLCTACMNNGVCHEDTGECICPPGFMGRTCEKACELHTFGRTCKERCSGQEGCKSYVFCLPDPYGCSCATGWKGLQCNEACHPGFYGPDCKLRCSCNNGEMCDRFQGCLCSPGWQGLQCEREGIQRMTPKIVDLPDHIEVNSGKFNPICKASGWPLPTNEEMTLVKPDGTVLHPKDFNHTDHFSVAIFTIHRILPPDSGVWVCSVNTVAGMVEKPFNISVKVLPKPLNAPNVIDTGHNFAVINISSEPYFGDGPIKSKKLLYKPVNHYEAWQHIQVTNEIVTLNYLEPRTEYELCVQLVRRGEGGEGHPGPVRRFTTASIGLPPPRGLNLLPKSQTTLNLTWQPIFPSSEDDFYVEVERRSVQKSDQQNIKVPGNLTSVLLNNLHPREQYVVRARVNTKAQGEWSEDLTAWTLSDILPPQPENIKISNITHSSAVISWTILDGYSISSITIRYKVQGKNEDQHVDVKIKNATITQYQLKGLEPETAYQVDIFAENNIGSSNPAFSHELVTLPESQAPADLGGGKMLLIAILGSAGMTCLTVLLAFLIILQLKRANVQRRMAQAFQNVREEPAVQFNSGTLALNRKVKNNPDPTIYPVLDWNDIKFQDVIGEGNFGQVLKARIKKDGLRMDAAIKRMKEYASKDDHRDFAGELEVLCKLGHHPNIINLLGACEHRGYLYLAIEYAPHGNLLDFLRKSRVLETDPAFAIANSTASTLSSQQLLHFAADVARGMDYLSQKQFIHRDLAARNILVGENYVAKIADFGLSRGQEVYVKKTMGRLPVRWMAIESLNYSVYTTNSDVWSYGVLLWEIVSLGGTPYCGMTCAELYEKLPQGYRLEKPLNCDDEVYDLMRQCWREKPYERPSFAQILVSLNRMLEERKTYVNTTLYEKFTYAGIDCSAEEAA

[8] = target: Dual specificity tyrosine-phosphorylation-regulated kinase 3 (Homo sapiens) (UniProt O43781); experiment: Inhibition of human DYRK3 assessed as residual activity at 1 uM in presence of 33P-ATP by filter-binding assay relative to control
[9] = target: Mitogen-activated protein kinase kinase kinase 5 (Homo sapiens) (UniProt Q99683); experiment: Inhibition of human ASK1 assessed as residual activity at 1 uM in presence of [33P]ATP by filter binding assay relative to control
[10] = target: Serine/threonine-protein kinase ULK1 (Homo sapiens) (UniProt O75385); experiment: Inhibition of human ULK1 assessed as residual activity at 1 uM in presence of [33P]ATP by filter binding assay relative to control
[11] = target: MAP kinase-interacting serine/threonine-protein kinase 2 (Homo sapiens) (UniProt Q9HBH9); experiment: Inhibition of human MNK2 assessed as residual activity at 1 uM in presence of [33P]ATP by filter binding assay relative to control
[12] = target: Platelet-derived growth factor receptor alpha (Homo sapiens) (UniProt P16234); experiment: Inhibition of human PDGFRA assessed as residual activity at 1 uM in presence of [33P]ATP by filter binding assay relative to control
[13] = target: Ephrin type-B receptor 4 (Homo sapiens) (UniProt P54760); experiment: Inhibition of human EPHB4 assessed as residual activity at 1 uM in presence of [33P]ATP by filter binding assay relative to control
[14] = target: Tyrosine-protein kinase Yes (Homo sapiens) (UniProt P07947); experiment: Inhibition of human YES1 assessed as residual activity at 1 uM in presence of [33P]ATP by filter binding assay relative to control
Chain of Tyrosine-protein kinase Yes (Homo sapiens) (P07947 2-543 limits assumed): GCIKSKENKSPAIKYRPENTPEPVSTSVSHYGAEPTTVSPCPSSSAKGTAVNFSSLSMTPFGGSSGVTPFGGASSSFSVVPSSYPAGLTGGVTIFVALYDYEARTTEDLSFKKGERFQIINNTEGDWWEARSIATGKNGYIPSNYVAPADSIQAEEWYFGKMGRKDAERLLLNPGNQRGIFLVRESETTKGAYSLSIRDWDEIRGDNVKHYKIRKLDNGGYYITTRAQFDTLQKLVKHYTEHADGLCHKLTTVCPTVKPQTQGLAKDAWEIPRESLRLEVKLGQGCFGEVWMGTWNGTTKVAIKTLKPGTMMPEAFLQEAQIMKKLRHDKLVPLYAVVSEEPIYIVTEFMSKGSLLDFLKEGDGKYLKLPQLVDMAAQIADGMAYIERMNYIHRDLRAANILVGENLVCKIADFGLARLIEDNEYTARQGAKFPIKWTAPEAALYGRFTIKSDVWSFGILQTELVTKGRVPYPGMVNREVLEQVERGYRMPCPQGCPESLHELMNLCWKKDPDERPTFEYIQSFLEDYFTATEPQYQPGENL

[15] = target: RAC-beta serine/threonine-protein kinase (Homo sapiens) (UniProt P31751); experiment: Inhibition of human PKBb assessed as residual activity at 1 uM in presence of [33P]ATP by filter binding assay relative to control
Homo sapiens = species on record: Homo sapiens; experiment: Inhibition of human VEGFR assessed as residual activity at 1 uM in presence of 33P-ATP by filter-binding assay relative to control
[16] = target: Serine/threonine-protein kinase TAO1 (Homo sapiens) (UniProt Q7L7X3); experiment: Inhibition of human TAO1 assessed as residual activity at 1 uM in presence of 33P-ATP by filter-binding assay relative to control
[17] = target: Serine/threonine-protein kinase 24 (Homo sapiens) (UniProt Q9Y6E0); experiment: Inhibition of human MST3 assessed as residual activity at 1 uM in presence of [33P]ATP by filter binding assay relative to control
Chain of Serine/threonine-protein kinase 24 (Homo sapiens) (Q9Y6E0 whole entry, looked up): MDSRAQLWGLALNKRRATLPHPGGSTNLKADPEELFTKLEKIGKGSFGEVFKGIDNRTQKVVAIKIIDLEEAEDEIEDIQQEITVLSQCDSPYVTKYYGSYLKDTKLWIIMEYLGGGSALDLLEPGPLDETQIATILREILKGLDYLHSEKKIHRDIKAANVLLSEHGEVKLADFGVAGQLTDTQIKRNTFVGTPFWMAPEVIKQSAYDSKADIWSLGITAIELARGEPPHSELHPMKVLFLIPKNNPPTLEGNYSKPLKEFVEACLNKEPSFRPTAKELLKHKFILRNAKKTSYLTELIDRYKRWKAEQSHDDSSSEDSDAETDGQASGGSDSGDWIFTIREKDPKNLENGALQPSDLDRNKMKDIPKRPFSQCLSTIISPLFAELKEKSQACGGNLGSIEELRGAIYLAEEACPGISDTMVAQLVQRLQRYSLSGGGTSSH

[18] = target: Mitogen-activated protein kinase 11 (Homo sapiens) (UniProt Q15759); experiment: Inhibition of human P38b MAPK assessed as residual activity at 1 uM in presence of [33P]ATP by filter binding assay relative to control
Chain of Mitogen-activated protein kinase 11 (Homo sapiens) (Q15759 whole entry): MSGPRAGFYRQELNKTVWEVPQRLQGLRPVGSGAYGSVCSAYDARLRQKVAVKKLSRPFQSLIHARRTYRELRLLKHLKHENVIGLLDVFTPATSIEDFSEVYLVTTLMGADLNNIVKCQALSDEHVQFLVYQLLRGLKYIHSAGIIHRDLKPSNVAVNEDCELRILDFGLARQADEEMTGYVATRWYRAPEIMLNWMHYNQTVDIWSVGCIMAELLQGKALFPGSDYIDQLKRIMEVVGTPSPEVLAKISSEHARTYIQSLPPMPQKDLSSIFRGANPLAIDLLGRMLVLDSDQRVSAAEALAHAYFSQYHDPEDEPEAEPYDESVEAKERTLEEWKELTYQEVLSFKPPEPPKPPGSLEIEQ

[19] = target: Homeodomain-interacting protein kinase 1 (Homo sapiens) (UniProt Q86Z02); experiment: Inhibition of human HIPK1 assessed as residual activity at 1 uM in presence of [33P]ATP by filter binding assay relative to control
[20] = target: Mitogen-activated protein kinase 7 (Homo sapiens) (UniProt Q13164); experiment: Inhibition of human ERK5 assessed as residual activity at 1 uM in presence of 33P-ATP by filter-binding assay relative to control
[21] = target: Insulin receptor (Homo sapiens) (UniProt P06213); experiment: Inhibition of human IR assessed as residual activity at 1 uM in presence of [33P]ATP by filter binding assay relative to control
[22] = target: Discoidin domain-containing receptor 2 (Homo sapiens) (UniProt Q16832); experiment: Inhibition of human DDR2 assessed as residual activity at 1 uM in presence of [33P]ATP by filter binding assay relative to control
[23] = target: Mitogen-activated protein kinase kinase kinase 7 (Homo sapiens) (UniProt O43318); experiment: Inhibition of human TAK1 assessed as residual activity at 1 uM in presence of [33P]ATP by filter binding assay relative to control
Chain of Mitogen-activated protein kinase kinase kinase 7 (Homo sapiens) (O43318 whole entry): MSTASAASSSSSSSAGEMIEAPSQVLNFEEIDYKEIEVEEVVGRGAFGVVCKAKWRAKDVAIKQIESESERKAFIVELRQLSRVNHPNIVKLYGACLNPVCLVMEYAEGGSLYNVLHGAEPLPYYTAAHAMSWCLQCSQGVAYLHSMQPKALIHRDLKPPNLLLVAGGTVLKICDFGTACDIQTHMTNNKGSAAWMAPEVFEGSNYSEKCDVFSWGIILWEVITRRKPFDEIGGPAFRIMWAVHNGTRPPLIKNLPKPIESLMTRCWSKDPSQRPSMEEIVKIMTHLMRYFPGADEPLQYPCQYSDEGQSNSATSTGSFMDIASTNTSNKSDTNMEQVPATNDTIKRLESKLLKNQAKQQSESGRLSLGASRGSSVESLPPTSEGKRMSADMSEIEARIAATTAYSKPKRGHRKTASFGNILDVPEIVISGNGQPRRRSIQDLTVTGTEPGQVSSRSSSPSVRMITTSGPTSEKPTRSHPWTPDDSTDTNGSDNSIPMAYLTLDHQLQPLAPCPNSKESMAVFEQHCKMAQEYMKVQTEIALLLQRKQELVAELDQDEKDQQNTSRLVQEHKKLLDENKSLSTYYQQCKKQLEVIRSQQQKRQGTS

[24] = target: Dual specificity mitogen-activated protein kinase kinase 2 (Homo sapiens) (UniProt P36507); experiment: Inhibition of human MKK2 assessed as residual activity at 1 uM in presence of [33P]ATP by filter binding assay relative to control
[25] = target: Mitogen-activated protein kinase 1 (Homo sapiens) (UniProt P28482); experiment: Inhibition of human ERK2 assessed as residual activity at 1 uM in presence of [33P]ATP by filter binding assay relative to control
[26] = target: Casein kinase I isoform gamma-2 (Homo sapiens) (UniProt P78368); experiment: Inhibition of human CK1gamma2 assessed as residual activity at 1 uM in presence of [33P]ATP by filter binding assay relative to control
[27] = target: High affinity nerve growth factor receptor (Homo sapiens) (UniProt P04629); experiment: Inhibition of human TrkA assessed as residual activity at 1 uM in presence of [33P]ATP by filter binding assay relative to control
[28] = target: Ribosomal protein S6 kinase beta-1 (Homo sapiens) (UniProt P23443); experiment: Inhibition of human S6K1 assessed as residual activity at 1 uM in presence of 33P-ATP by filter-binding assay relative to control
Chain of Ribosomal protein S6 kinase beta-1 (Homo sapiens) (P23443 whole entry, looked up): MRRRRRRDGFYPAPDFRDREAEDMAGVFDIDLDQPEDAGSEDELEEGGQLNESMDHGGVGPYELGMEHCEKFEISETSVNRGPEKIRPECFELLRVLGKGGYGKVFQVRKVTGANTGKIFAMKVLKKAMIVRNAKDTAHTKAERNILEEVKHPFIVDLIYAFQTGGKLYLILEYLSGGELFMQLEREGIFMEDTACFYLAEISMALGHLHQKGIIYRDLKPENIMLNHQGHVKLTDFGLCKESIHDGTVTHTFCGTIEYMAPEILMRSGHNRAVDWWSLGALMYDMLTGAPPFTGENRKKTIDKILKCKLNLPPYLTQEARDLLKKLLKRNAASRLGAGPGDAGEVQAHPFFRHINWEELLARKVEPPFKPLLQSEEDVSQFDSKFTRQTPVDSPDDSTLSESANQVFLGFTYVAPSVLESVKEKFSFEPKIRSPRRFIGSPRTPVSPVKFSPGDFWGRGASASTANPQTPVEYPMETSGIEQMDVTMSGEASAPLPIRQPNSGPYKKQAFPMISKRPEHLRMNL

[29] = target: Aurora kinase B (Homo sapiens) (UniProt Q96GD4); experiment: Inhibition of human Aurora B assessed as residual activity at 1 uM in presence of [33P]ATP by filter binding assay relative to control

Which Activity [1] does the source give for NCCCC[C@H](NC(=O)[C@H](CC(=O)O)NC(=O)[C@H](CC(=O)O)NC(=O)[C@H](CC(=O)O)NC(=O)[C@H](CC(=O)O)NC(=O)[C@H](CC(=O)O)NC(=O)[C@H](CC(=O)O)NC(=O)CCCCCCCCOc1nc2cc(C(=O)O)ccc2c2cnccc12)C(=O)O (X1-DDDDDDK-OH) here?
The Activity was 90%.

What about the Activity [2] of the same compound?
Its Activity is 39%.

And the Activity [3]?
The Activity was 84%.

What about the Activity [4] of the same compound?
The Activity was 93%.

What about the Activity [5] of the same compound?
The Activity was 84%.

What about the Activity [6] of the same compound?
Its Activity is 80%.

And the Activity [7]?
Its Activity is 41%.

And the Activity [8]?
The Activity was 4%.

What about the Activity [9] of the same compound?
The Activity was 118%.

And the Activity [10]?
The Activity was 90%.

What about the Activity [11] of the same compound?
The Activity was 85%.

What about the Activity [12] of the same compound?
The Activity was 102%.

And the Activity [13]?
The Activity was 86%.

What about the Activity [14] of the same compound?
The Activity was 91%.

And the Activity [15]?
The Activity was 100%.

What about the Activity (Homo sapiens) of the same compound?
The Activity was 63%.

And the Activity [16]?
Its Activity is 65%.

What about the Activity [17] of the same compound?
The Activity was 93%.

What about the Activity [18] of the same compound?
Its Activity is 107%.

And the Activity [19]?
The Activity was 86%.

And the Activity [20]?
Its Activity is 39%.

What about the Activity [21] of the same compound?
The Activity was 85%.

What about the Activity [22] of the same compound?
The Activity was 117%.

What about the Activity [23] of the same compound?
The Activity was 80%.

And the Activity [24]?
Its Activity is 88%.

And the Activity [25]?
Its Activity is 90%.

What about the Activity [26] of the same compound?
Its Activity is 86%.

And the Activity [27]?
The Activity was 85%.

What about the Activity [28] of the same compound?
The Activity was 31%.

What about the Activity [29] of the same compound?
Its Activity is 86%.
